{"source": "patent US6489470B1", "about": "“Process for the preparation of cefpodoxime proxetil diastereoisomers” (Biochemie Gesellschaft m.b.H., priority 1998, dated 2002)", "assay": "bioequivalence with a commercial form for oral administration", "format": "in vivo", "settings": "mixture of diastereoisomers, diastereoisomeric ratio (B/A+B) of 0.5 to 0.6"}
{"smiles": "COCC1=C(C(=O)OC(C)OC(=O)OC(C)C)N2C(=O)[C@@H](NC(=O)/C(=N\\OC)c3csc(N)n3)C2SC1", "note": "(mixture of isomers) [cefpodoxim proxetil, 7-[2-(2-aminothiazol-4-yl)-2-(Z)-(methoxyimino)acetamido]-3-methoxymethyl-3-cephem-4-carboxylic acid-1-(isopropoxycarbonyloxy)ethyl ester]", "values": [{"measurement": "bioequivalence with a commercial form", "value": "bioequivalent"}]}
